Activity calls are given as the source filed them. The calls are words filed in the database; no cut-off is given here.
How the values were obtained:
[1] = biological target: T1, Muscarinic acetylcholine receptor M2 (Homo sapiens, UniProt P08172); experiment: Positive allosteric modulation of human M2 receptor/Gqi5 in presence of EC20 acetylcholine by calcium mobilization assay
T1 sequence (P08172 whole entry): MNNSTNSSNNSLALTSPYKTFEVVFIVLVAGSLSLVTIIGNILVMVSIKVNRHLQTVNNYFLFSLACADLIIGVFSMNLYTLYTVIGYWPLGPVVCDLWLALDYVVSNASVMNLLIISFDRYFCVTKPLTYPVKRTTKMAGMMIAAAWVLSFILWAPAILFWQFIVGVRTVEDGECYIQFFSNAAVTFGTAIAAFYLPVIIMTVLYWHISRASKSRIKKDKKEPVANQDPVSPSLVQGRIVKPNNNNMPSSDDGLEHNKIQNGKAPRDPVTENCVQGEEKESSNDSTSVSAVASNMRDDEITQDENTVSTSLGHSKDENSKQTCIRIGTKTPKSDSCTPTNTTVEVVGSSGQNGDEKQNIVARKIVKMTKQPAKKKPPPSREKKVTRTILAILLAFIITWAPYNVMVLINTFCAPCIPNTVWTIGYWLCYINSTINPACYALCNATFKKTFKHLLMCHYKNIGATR

[2] = biological target: Muscarinic acetylcholine receptor M3 (Homo sapiens, UniProt P20309); experiment: Positive allosteric modulation of human M3 receptor
[3] = biological target: T2, Muscarinic acetylcholine receptor M4 (Homo sapiens, UniProt P08173); experiment: Positive allosteric modulation of human M4 receptor/Gqi5 in presence of EC20 acetylcholine by calcium mobilization assay; format: functional
T2 sequence (P08173 whole entry): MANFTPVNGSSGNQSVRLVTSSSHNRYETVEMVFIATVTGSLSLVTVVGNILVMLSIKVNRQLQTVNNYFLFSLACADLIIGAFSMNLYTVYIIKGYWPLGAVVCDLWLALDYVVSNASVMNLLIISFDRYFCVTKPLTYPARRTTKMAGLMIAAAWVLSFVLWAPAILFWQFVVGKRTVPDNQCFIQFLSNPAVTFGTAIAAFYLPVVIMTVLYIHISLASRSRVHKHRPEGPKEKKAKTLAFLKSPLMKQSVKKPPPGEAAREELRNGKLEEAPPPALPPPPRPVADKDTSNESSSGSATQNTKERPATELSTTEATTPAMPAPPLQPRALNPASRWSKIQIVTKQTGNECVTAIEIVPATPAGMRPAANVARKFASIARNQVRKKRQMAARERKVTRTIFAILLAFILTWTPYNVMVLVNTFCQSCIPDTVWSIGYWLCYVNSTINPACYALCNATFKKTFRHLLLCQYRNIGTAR

[4] = biological target: T3, Muscarinic acetylcholine receptor M1 (Homo sapiens) (UniProt P11229); experiment: Positive allosteric modulation of human M1 receptor
T3 sequence (whole entry): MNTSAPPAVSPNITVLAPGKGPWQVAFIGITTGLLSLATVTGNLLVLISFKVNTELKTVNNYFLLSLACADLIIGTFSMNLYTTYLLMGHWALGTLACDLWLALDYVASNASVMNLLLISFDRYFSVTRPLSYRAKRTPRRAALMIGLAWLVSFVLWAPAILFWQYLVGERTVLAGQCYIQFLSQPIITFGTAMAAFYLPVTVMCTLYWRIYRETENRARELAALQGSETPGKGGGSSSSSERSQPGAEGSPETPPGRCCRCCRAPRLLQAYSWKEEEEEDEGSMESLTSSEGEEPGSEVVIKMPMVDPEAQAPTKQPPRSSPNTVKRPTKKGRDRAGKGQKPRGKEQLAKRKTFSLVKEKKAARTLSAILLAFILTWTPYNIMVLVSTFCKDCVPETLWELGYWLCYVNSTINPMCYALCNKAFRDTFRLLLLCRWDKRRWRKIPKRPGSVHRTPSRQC

[5] = biological target: T4, Muscarinic acetylcholine receptor M5 (Homo sapiens) (UniProt P08912); experiment: Positive allosteric modulation of human M5 receptor
T4 sequence (whole entry): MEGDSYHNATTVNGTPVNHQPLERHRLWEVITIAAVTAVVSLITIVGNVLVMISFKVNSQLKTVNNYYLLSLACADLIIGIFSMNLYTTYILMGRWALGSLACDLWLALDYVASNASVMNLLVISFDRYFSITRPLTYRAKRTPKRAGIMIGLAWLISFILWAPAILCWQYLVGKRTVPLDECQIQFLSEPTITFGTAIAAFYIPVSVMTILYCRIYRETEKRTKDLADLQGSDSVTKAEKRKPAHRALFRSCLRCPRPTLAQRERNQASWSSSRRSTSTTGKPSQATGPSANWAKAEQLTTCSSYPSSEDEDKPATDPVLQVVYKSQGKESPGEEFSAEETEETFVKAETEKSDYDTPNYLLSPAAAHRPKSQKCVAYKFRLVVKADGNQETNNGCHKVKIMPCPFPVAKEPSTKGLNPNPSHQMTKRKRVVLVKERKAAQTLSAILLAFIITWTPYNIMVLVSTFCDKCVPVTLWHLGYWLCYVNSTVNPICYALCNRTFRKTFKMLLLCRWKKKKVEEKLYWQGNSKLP

[6] = biological target: T5, Muscarinic acetylcholine receptor M4 (Homo sapiens) (UniProt P08173); experiment: Positive allosteric modulation of human M4 receptor/Gqi5 in presence of EC20 acetylcholine by calcium mobilization assay relative to acetylcholine; format: functional; settings: filed as positive allosteric modulator
T5 sequence (whole entry): T2 sequence (P08173 whole entry)

[7] = Hepatic clearance in rat; format: ADME; settings: in vivo
[8] = Brain to plasma permeability coefficient, Kp in Sprague-Dawley rat at 0.1 to 0.2 mg/kg, iv measured after 0.25 hrs; format: ADME, organism-based; settings: dose 0.1-0.2 mg/kg
[9] = Unbound brain-to-plasma concentration ratio in Sprague-Dawley rat at 0.1 to 0.2 mg/kg, iv measured after 0.25 hrs; format: ADME, organism-based; settings: dose 0.1-0.2 mg/kg, read-out: K(p,uu,brain)
[10] = Fraction unbound in rat plasma; format: ADME, cell-free
[11] = Fraction unbound in human plasma; format: ADME, cell-free
[12] = Fraction unbound in rat brain; format: ADME, tissue-based
[13] = biological target: T1, Muscarinic acetylcholine receptor M2; experiment: Positive allosteric modulation of human M2 receptor/Gqi5 in presence of EC20 acetylcholine by calcium mobilization assay relative to acetylcholine; settings: read-out: %max
[14] = Hepatic clearance in human; format: ADME

Sequence of Muscarinic acetylcholine receptor M3 (P20309 whole entry, looked up): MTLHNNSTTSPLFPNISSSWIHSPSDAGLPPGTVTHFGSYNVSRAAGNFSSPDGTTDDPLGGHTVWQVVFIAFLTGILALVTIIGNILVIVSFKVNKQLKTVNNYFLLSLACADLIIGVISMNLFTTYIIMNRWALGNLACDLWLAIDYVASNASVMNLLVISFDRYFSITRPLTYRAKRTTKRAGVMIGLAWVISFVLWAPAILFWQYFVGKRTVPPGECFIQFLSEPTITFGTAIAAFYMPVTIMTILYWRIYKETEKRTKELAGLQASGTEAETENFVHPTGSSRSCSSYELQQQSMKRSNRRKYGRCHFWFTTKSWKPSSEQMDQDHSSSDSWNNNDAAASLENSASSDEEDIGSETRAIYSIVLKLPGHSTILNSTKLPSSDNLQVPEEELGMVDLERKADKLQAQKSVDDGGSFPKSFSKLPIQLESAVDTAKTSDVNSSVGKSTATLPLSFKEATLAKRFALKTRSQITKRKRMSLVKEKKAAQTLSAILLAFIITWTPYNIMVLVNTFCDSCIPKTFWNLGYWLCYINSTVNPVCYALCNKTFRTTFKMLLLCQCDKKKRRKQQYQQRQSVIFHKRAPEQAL

Row | EC50 [1] [nM] | Activity [2] | EC50 [3] [nM] | Activity [4] | Activity [5] | %max [6] [%] | CLH [7] [mL/min/kg] | Kp at 0.25 h [8] | Kp uu at 0.25 h [9] | fraction unbound [10] | fraction unbound [11] | fraction unbound [12] | Emax [13] [%] | CLH [14] [mL/min/kg] | SMILES
1 |  |  | 20 |  |  | 83 |  |  |  |  |  |  |  |  | COc1nnc2sc(C(=O)NC3Cc4ccccc4C3)c(N)c2c1C
2 |  |  | 60 |  |  | 81 |  |  |  |  |  |  |  |  | Cc1cnnc2sc(C(=O)NC3Cc4ccccc4C3)c(N)c12
3 | 1100 | inactive | 20 | inactive | inactive | 86 |  |  |  |  |  |  | 64 |  | Cc1c(Cl)nnc2sc(C(=O)NC3CN(c4cccnc4)C3)c(N)c12
4 |  |  | 10 |  |  | 73 |  |  |  |  |  |  |  |  | Cc1c(Cl)nnc2sc(C(=O)NC3Cc4ccccc4C3)c(N)c12
5 | > 30000 | inactive | 10 | inactive | inactive | 52 | 15.3 | 0.21 | 0.42 | 0.005 | < 0.001 | 0.01 |  | 11.7 | COc1cc(N2CC(NC(=O)c3sc4nnc(Cl)c(C)c4c3N)C2)c(Cl)cn1
6 |  |  | 290 |  |  | 71 |  |  |  |  |  |  |  |  | Cc1c(O)nnc2sc(C(=O)NC3Cc4ccccc4C3)c(N)c12
7 | > 30000 | inactive | 70 | inactive | inactive | 72 |  |  |  |  |  |  |  |  | Cc1c(Cl)nnc2sc(C(=O)NC3CN(c4ccnc(F)c4Cl)C3)c(N)c12
8 |  |  | 20 |  |  | 79 |  |  |  |  |  |  |  |  | Cc1nnc2sc(C(=O)NC3Cc4ccccc4C3)c(N)c2c1C

Further lines, the compound ahead of its results:

Row | SMILES | EC50 [1] [nM] | Activity [2] | EC50 [3] [nM] | Activity [4] | Activity [5] | %max [6] [%] | CLH [7] [mL/min/kg] | Kp at 0.25 h [8] | Kp uu at 0.25 h [9] | fraction unbound [10] | fraction unbound [11] | fraction unbound [12] | Emax [13] [%] | CLH [14] [mL/min/kg]
9 | Cc1c(Cl)nnc2sc(C(=O)NC3CN(c4cc(Cl)ncc4Cl)C3)c(N)c12 | > 30000 | inactive | 30 | inactive | inactive | 59 |  |  |  |  |  |  |  | 
10 | Cc1c(Cl)nnc2sc(C(=O)NC3CN(c4ncc(C(F)(F)F)cn4)C3)c(N)c12 | > 30000 | inactive | 60 | inactive | inactive | 78 | 51.9 | 0.1 | 0.17 | 0.022 | 0.022 | 0.037 |  | 
11 | Cc1c(Cl)nnc2sc(C(=O)NC3CN(c4ccc(C5CC5)nn4)C3)c(N)c12 | > 5000 | inactive | 120 | inactive | inactive | 94 |  |  |  |  |  |  | 43 | 
12 | CCc1nnc2sc(C(=O)NC3CN(c4ncc(C(F)(F)F)cn4)C3)c(N)c2c1C | > 30000 | inactive | 510 | inactive | inactive | 77 |  |  |  |  |  |  |  | 
13 | Cc1c(Cl)nnc2sc(C(=O)NC3CN(c4nnc(CC(C)C)o4)C3)c(N)c12 | > 10000 | inactive | 230 | inactive | inactive | 47 |  |  |  |  |  |  | 62 | 
14 | Cc1c(CO)nnc2sc(C(=O)NC3CN(c4ncc(C(F)(F)F)cn4)C3)c(N)c12 | > 30000 | inactive | 1170 | inactive | inactive | 75 |  |  |  |  |  |  |  | 
15 | Cc1c(CF)nnc2sc(C(=O)NC3CN(c4ncc(C(F)(F)F)cn4)C3)c(N)c12 | > 30000 | inactive | 170 | inactive | inactive | 73 | 23.7 | 0.06 | 0.15 | 0.034 | 0.042 | 0.085 |  | 10.8
16 | Cc1c(Cl)nnc2sc(C(=O)NC3CN(c4cnc(Cl)cn4)C3)c(N)c12 | 400 | inactive | 140 | inactive | inactive | 99 |  |  |  |  |  |  | 40 | 
17 | Cc1c(O)nnc2sc(C(=O)NC3CN(c4ncc(C(F)(F)F)cn4)C3)c(N)c12 | > 30000 | inactive | 6720 | inactive | inactive | 45 |  |  |  |  |  |  |  | 
18 | Cc1c(C(C)C)nnc2sc(C(=O)NC3CN(c4ncc(C(F)(F)F)cn4)C3)c(N)c12 | > 30000 | inactive | 540 | inactive | inactive | 56 |  |  |  |  |  |  |  | 
19 | Cc1nc(Cl)c(C)c(N2CC(NC(=O)c3sc4nnc(Cl)c(C)c4c3N)C2)n1 | > 30000 | inactive | 100 | inactive | inactive | 84 |  |  |  |  |  |  |  | 
20 | Cc1cc(C2CC2)ncc1N1CC(NC(=O)c2sc3nnc(Cl)c(C)c3c2N)C1 | 870 | inactive | 150 | inactive | inactive | 90 |  |  |  |  |  |  | 33 | 
21 | Cc1c(CN(C)C)nnc2sc(C(=O)NC3CN(c4ncc(C(F)(F)F)cn4)C3)c(N)c12 | > 30000 | inactive | > 30000 | inactive | inactive |  |  |  |  |  |  |  |  | 
22 | Cc1c(Cl)nnc2sc(C(=O)NC3CN(c4cc(C(F)(F)F)ncc4Cl)C3)c(N)c12 | > 10000 | inactive | 20 | inactive | inactive | 90 | 31.7 | 0.31 | 0.16 | 0.019 | 0.019 | 0.01 | 51 | 14.7
23 | Cc1c(Cl)nnc2sc(C(=O)NC3CN(c4ncncc4C#N)C3)c(N)c12 | > 30000 | inactive | 220 | inactive | inactive | 65 |  |  |  |  |  |  |  | 
24 | COCCOc1nnc2sc(C(=O)NC3CN(c4ncc(C(F)(F)F)cn4)C3)c(N)c2c1C | > 30000 | inactive | 180 | inactive | inactive | 48 |  |  |  |  |  |  |  | 
